molecular target: T1, RANTES/MIP-1α chemokine receptor (CCR1) in THP-1 cell membranes (Homo sapiens, UniProt P32246); test: Receptor binding assay: 125I-RANTES or 125I-MIP-1α binding to THP-1 cell membranes; conditions: not given
T1 construct: Membranes were prepared from THP-1 cells (ATCC #TIB202); host or cells: THP-1 cells (membrane preparation)
T1 sequence (P32246 1-355): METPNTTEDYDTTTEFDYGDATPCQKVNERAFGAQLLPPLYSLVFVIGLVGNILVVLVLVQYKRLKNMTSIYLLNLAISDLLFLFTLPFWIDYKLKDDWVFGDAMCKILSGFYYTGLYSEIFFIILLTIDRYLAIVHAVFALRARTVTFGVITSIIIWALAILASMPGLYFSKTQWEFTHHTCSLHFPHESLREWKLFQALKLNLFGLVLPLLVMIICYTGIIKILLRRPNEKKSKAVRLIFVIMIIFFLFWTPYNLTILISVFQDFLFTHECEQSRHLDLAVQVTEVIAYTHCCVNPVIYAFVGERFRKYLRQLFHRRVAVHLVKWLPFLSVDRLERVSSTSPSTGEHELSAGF

Question: How did the IC50 turn out when `CC(C)(O)c1ccc2c(c1)C(=CCCN1CCC(C#N)(Nc3ccc(Cl)cc3)CC1)c1cccnc1CO2` [Example 464, 4-(4-Chloro-phenylamino)-1-{3-[7-(1-hydroxy-1-methyl-ethyl)-11H-10-oxa-1-aza-dibenzo[a,d]cyclohepten-5-ylidene]-propyl}-piperidine-4-carbonitrile] was run?
Answer: < 1000 nM

Question: How did the IC50 turn out when `COC(=O)C1(Nc2ccc(Cl)cc2)CCN(CCC=C2c3cc(C(C)(C)O)ccc3OCc3ncccc32)CC1` [Example 465, 4-(4-Chloro-phenylamino)-1-{3-[7-(1-hydroxy-1-methyl-ethyl)-11H-10-oxa-1-aza-dibenzo[a,d]cyclohepten-5-ylidene]-propyl}-piperidine-4-carboxylic acid methyl ester] was run?
Answer: < 1000 nM

Question: For `CC(C)(O)c1ccc2c(c1)C(=CCCN1CCC(Nc3ccc(Cl)cc3)(C(N)=O)CC1)c1cccnc1CO2` [Example 466, 4-(4-Chloro-phenylamino)-1-{3-[7-(1-hydroxy-1-methyl-ethyl)-11H-10-oxa-1-aza-dibenzo[a,d]cyclohepten-5-ylidene]-propyl}-piperidine-4-carboxylic acid amide], which IC50 is on record?
Answer: < 50000 nM

same assay, conditions: inhibitor concentration required for 50% inhibition of specific binding; 125I-RANTES or 125I-MIP-1α as ligand, THP-1 cell membranes; read-out: IC50

Question: For `CC(C)(C)C(=O)OCOC(=O)c1ccc2c(c1)C(=CCCN1CCC(O)(c3ccc(Cl)cc3)CC1)c1cccnc1CO2` [Example 432, 4-(4-Chlorophenyl)-1-[3-(5,11-dihydro-7-(1-2,2-dimethylpropionyl-oxymethyl)-oxycarbonyl-[1]benzoxepino[2,3-b]pyridin-5-ylidene)propyl]piperidine-4-ol], which IC50 is on record?
Answer: < 1000 nM

Question: `CC(C)(O)c1ccc2c(c1)C(=CCCN1CCC(C#N)(c3ccc(Cl)cc3)CC1)c1cccnc1CO2` [Example 456, 4-(4-Chloro-phenyl)-1-{3-[7-(1-hydroxy-1-methyl-ethyl)-11H-10-oxa-1-aza-dibenzo-[a,d]cyclohepten-5-ylidene]-propyl}-piperidine-4-carbonitrile] was tested. Which IC50 did it give?
Answer: < 1000 nM

Question: How did the IC50 turn out when `CC(=O)C1(c2ccc(Cl)cc2)CCN(CCC=C2c3cc(C(C)(C)O)ccc3OCc3ncccc32)CC1` [Example 457, 1-(4-(4-Chloro-phenyl)-1-{3-[7-(1-hydroxy-1-methyl-ethyl)-11H-10-oxa-1-aza-dibenzo[a,d]cyclohepten-5-ylidene]-propyl}-piperidin-4-yl)-ethanone] was run?
Answer: < 1000 nM

Question: How did the IC50 turn out when `COC(=O)C1(c2ccc(Cl)cc2)CCN(CCC=C2c3cc(C(C)(C)O)ccc3OCc3ncccc32)CC1` [Example 458, 4-(4-Chloro-phenyl)-1-{3-[7-(1-hydroxy-1-methyl-ethyl)-11H-10-oxa-1-aza-dibenzo[a,d]cyclohepten-5-ylidene]-propyl}-piperidine-4-carboxylic acid methyl ester] was run?
Answer: < 10000 nM

Question: Which IC50 does the source give for `CC(C)(O)c1ccc2c(c1)C(=CCCN1CCC(C(=O)O)(c3ccc(Cl)cc3)CC1)c1cccnc1CO2` [Example 459, 4-(4-Chloro-phenyl)-1-{3-[7-(1-hydroxy-1-methyl-ethyl)-11H-10-oxa-1-aza-dibenzo[a,d]cyclohepten-5-ylidene]-propyl}-piperidine-4-carboxylic acid] here?
Answer: < 10000 nM

Question: How did the IC50 turn out when `CC(C)(O)c1ccc2c(c1)C(=CCCN1CCC(C(N)=O)(c3ccc(Cl)cc3)CC1)c1cccnc1CO2` [Example 460, 4-(4-Chloro-phenyl)-1-{3-[7-(1-hydroxy-1-methyl-ethyl)-11H-10-oxa-1-aza-dibenzo[a,d]cyclohepten-5-ylidene]-propyl}-piperidine-4-carboxylic acid amide] was run?
Answer: < 1000 nM

Question: For `CC(C)(O)c1ccc2c(c1)C(=CCCN1CCC(CO)(c3ccc(Cl)cc3)CC1)c1cccnc1CO2` [Example 461, 2-(5-{3-[4-(4-Chloro-phenyl)-4-hydroxymethyl-piperidin-1-yl]-propylidene}-5,11-dihydro-10-oxa-1-aza-dibenzo[a,d]cyclohepten-7-yl)-propan-2-ol], which IC50 is on record?
Answer: < 10000 nM

Question: `CC(O)C1(c2ccc(Cl)cc2)CCN(CCC=C2c3cc(C(C)(C)O)ccc3OCc3ncccc32)CC1` (stereo not shown) [Example 462, 2-(5-{3-[4-(4-chloro-phenyl)-4-(1-hydroxy-ethyl)-piperidin-1-yl]-propylidene}-5,11-dihydro-10-oxa-1-aza-dibenzo [a,d]cyclohepten-7-yl)-propan-2-ol] was tested. Which IC50 did it give?
Answer: < 10000 nM

Question: `CC(C)(O)c1ccc2c(c1)C(=CCCN1CCC(c3ccc(Cl)cc3)(C(C)(C)O)CC1)c1cccnc1CO2` [Example 463, 2-(5-{3-[4-(4-Chloro-phenyl)-4-(1-hydroxy-1-methyl-ethyl)-piperidin-1-yl]-propylidene}-5,11-dihydro-10-oxa-1-aza-dibenzo[a,d]cyclohepten-7-yl)-propan-2-ol] was tested. Which IC50 did it give?
Answer: < 10000 nM

Question: `CC(C)(O)c1ccc2c(c1)C(=CCCN1CCC(F)(c3ccc(Cl)cc3)CC1)c1cccnc1CO2` [Example 467, 2-(5-{3-[4-(4-Chloro-phenyl)-4-fluoro-piperidin-1-yl]-propylidene}-5,11-dihydro-10-oxa-1-aza-dibenzo[a,d]cyclohepten-7-yl)-propan-2-ol] was tested. Which IC50 did it give?
Answer: < 1000 nM

Question: Which IC50 does the source give for `CC(C)(O)c1ccc2c(c1)C(=CCCN1CCC(F)(c3ccc(Cl)cc3)C(O)C1)c1cccnc1CO2` (stereo not shown) [Example 468, 4-(4-Chloro-phenyl)-4-fluoro-1-{3-[7-(1-hydroxy-1-methyl-ethyl)-11H-10-oxa-1-aza-dibenzo[a,d]cyclohepten-5-ylidene]-propyl}-piperidin-3-ol] here?
Answer: < 1000 nM

Question: With `CC1CN(CCC=C2c3cc(C(C)(C)O)ccc3OCc3ncccc32)CCC1(F)c1ccc(Cl)cc1` (stereo not shown) [Example 469, 2-(5-{3-[4-(4-Chloro-phenyl)-4-fluoro-3-methyl-piperidin-1-yl]-propylidene}-5,11-dihydro-10-oxa-1-aza-dibenzo[a,d]cyclohepten-7-yl)-propan-2-ol] as the compound, how does the IC50 read?
Answer: < 1000 nM

Question: With `CC(C)(O)c1ccc2c(c1)C(=CCCN1CCC(O)(c3ccc(Cl)cc3)C(O)C1)c1cccnc1CO2` (stereo not shown) [Example 470, 4-(4-Chloro-phenyl)-1-{3-[7-(1-hydroxy-1-methyl-ethyl)-11H-10-oxa-1-aza-dibenzo[a,d]cyclohepten-5-ylidene]-propyl}-piperidine-3,4-diol] as the compound, how does the IC50 read?
Answer: < 1000 nM

Question: How did the IC50 turn out when `CCC1CN(CCC=C2c3cc(C(C)(C)O)ccc3OCc3ncccc32)CCC1(O)c1ccc(Cl)cc1` (stereo not shown) [Example 471, 4-(4-Chloro-phenyl)-3-ethyl-1-{3-[7-(1-hydroxy-1-methyl-ethyl)-11H-10-oxa-1-aza-dibenzo[a,d]cyclohepten-5-ylidene]-propyl}-piperidin-4-ol] was run?
Answer: < 1000 nM

Question: How did the IC50 turn out when `CC(C)(O)c1ccc2c(c1)C(=CCCN1CCC3(CC1)OC(=O)c1cc(Cl)ccc13)c1cccnc1CO2` [Example 472, 5-Chloro-1-{3-[7-(1-hydroxy-1-methyl-ethyl)-11H-10-oxa-1-aza-dibenzo[a,d]-cyclohepten-5-ylidene}-propyl]-spiro[3-oxo-1,3-dihydroisobenzofuran-1,4′-piperidine]] was run?
Answer: < 1000 nM

Question: How did the IC50 turn out when `COC1(c2ccc(Cl)cc2)CCN(CCC=C2c3cc(C(C)(C)O)ccc3OCc3ncccc32)CC1(C)O` (stereo not shown) [Example 473, 4-(4-Chloro-phenyl)-1-{3-[7-(1-hydroxy-1-methyl-ethyl)-11H-10-oxa-1-aza-dibenzo[a,d]cyclohepten-5-ylidene]-propyl}-4-methoxy-3-methyl-piperidin-3-ol] was run?
Answer: < 1000 nM

Question: Which IC50 does the source give for `COC1(c2ccc(Cl)cc2)CCN(CCC=C2c3cc(C(C)(C)O)ccc3OCc3ncccc32)CC1O` (stereo not shown) [Example 474, 4-(4-Chloro-phenyl)-1-{3-[7-(1-hydroxy-1-methyl-ethyl)-11H-10-oxa-1-aza-dibenzo[a,d]cyclohepten-5-ylidene]-propyl}-4-methoxy-piperidin-3-ol] here?
Answer: < 1000 nM

Question: For `COC1CN(CCC=C2c3cc(C(C)(C)O)ccc3OCc3ncccc32)CCC1(OC)c1ccc(Cl)cc1` (stereo not shown) [Example 475, 2-(5-{3-[4-(4-Chloro-phenyl)-3,4-dimethoxy-piperidin-1-yl]-propylidene}-5,11-dihydro-10-oxa-1-aza-dibenzo[a,d]cyclohepten-7-yl)-propan-2-ol], which IC50 is on record?
Answer: < 1000 nM

Question: With `CC(C)(O)c1ccc2c(c1)C(=CCCN1CCC(O)(c3ccc(Cl)cc3)C(N=[N+]=[N-])C1)c1cccnc1CO2` (stereo not shown) [Example 476, 3-Azido-4-(4-chloro-phenyl)-1-{3-[7-(1-hydroxy-1-methyl-ethyl)-11H-10-oxa-1-aza-dibenzo[a,d]cyclohepten-5-ylidene}-propyl}-piperidin-4-ol] as the compound, how does the IC50 read?
Answer: < 1000 nM

Question: Which IC50 does the source give for `CC(C)(O)c1ccc2c(c1)C(=CCCN1CCC(N=[N+]=[N-])(c3ccc(Cl)cc3)C(O)C1)c1cccnc1CO2` (stereo not shown) [Example 477, 4-Azido-4-(4-chloro-phenyl)-1-{3-[7-(1-hydroxy-1-methyl-ethyl)-11H-10-oxa-1-aza-dibenzo[a,d]cyclohepten-5-ylidene]-propyl}-piperidin-3-ol] here?
Answer: < 10000 nM

Question: For `CCC(=O)NC1CN(CCC=C2c3cc(C(C)(C)O)ccc3OCc3ncccc32)CCC1(O)c1ccc(Cl)cc1` (stereo not shown) [Example 478, N-[4-(4-Chloro-phenyl)-4-hydroxy-1-{3-[7-(hydroxyl-1-methyl-ethyl)-11H-10-oxa-1-aza-dibenzo[a,d]cyclohepten-5-ylidene]-propyl}-piperidin-3-yl)-propionamide], which IC50 is on record?
Answer: < 10000 nM

Question: How did the IC50 turn out when `COC(=O)C1(C)CN(CCC=C2c3cc(C(C)(C)O)ccc3OCc3ncccc32)CCC1(O)c1ccc(Cl)cc1` (stereo not shown) [Example 481, 4-(4-Chloro-phenyl)-4-hydroxy-1-{3-[7-(hydroxyl-1-methyl-ethyl)-11H-10-oxa-1-aza-dibenzo[a,d]cyclohepten-5-ylidene}-propyl]-3-methyl-piperidine-3-carboxylic acid methyl ester] was run?
Answer: < 1000 nM
